The record followed here is patent US11685744B2, “CDK inhibitors and their use as pharmaceuticals” (Prelude Therapeutics, Incorporated, priority 2020, dated 2023).

The target in one series is CDK4/Cyclin D1 (Homo sapiens (Human), UniProt P11802). Kind of series: CDK4/CyclinD1 enzymatic activity assay (TR-FRET). The format is biochemical. The following applies: ATP 2 mM, read-out: CDK4_D1 IC50. The method, boiled down: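 Insect-cell CDK4/Cyclin D1 (1 nM) with ULight-4E-BP1 (100 nM) and 2 mM ATP in HEPES pH 7.4 buffer, preincubated 20 min with compound (9-dose, 3-fold dilutions); 10 mM MgCl2 started the reaction, run 60 min at 37 °C. EDTA/Eu-anti-phospho-4E-BP1 TR-FRET detection; IC50 from 4-parameter Hill fit.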
Sequence of CDK4/Cyclin D1 (P11802 whole entry): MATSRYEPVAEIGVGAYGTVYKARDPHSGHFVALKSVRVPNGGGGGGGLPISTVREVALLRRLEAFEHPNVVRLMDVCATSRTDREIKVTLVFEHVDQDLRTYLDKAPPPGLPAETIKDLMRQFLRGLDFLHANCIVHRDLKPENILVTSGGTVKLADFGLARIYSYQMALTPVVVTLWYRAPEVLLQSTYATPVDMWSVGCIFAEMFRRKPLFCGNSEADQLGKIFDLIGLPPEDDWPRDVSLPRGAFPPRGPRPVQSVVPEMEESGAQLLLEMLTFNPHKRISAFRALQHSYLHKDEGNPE
Sequence of CDK4/Cyclin D1 (P24385 whole entry partner): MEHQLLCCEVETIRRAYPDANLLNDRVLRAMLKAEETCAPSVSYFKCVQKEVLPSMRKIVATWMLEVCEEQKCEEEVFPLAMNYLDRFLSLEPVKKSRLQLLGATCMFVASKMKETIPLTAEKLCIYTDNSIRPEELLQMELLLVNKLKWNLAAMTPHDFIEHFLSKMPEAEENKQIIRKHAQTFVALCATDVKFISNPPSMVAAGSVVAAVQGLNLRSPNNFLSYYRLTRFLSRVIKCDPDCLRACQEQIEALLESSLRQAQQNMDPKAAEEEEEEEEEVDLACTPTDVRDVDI
For orientation: Time-resolved FRET reads energy transfer from a long-lived donor to a nearby acceptor.

The test system of series [1] is MCF7 adenocarcinoma cell line. Kind of series: Cell proliferation studies in MCF7 cells (ATP-Lite, 10 days). The following applies: Homo sapiens, 240 h, read-out: PROLIFERATION_CTG_MCF7 IC50. The format is cell-based. The method in brief:
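Cells were seeded at 100 or 200 per well in DMEM with 10% FBS and dosed in quadruplicate over a 9-point 3-fold dilution. Incubation lasted 10 days at 37 °C, with media exchange and re-dosing on day 5. Viability was read by ATP-Lite luminescence and normalised to background and DMSO, giving IC50.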

A further series concerns the target CDK6/Cyclin D1 (Homo sapiens (Human), UniProt Q00534). As to the kind of experiment: CDK6/CyclinD1 enzymatic activity assay (TR-FRET). The format is biochemical. The following applies: ATP 250 μM, read-out: CDK6_D1 IC50. The method, boiled down: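 Insect-cell-expressed CDK6/Cyclin D1 (1 nM) phosphorylated ULight-4E-BP1 (100 nM) with 250 μM ATP in HEPES pH 7.4 buffer. After 20 min compound preincubation, reactions were started with 10 mM MgCl2 and run 60 min at 37 °C. EDTA-quenched samples were read by TR-FRET with Eu-anti-P-4E-BP1; IC50 from 9-dose 4-parameter fits.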

A short description of series [2]: Brain-to-plasma ratio (Kp) determination in Sprague-Dawley rats. Conditions: male, rat, po, 10 mg/kg.
Protocol: The brain-to-plasma ratio (Kp) was determined in male Sprague-Dawley rats (7-9 weeks old) four hours after a single oral dose. Rats were acclimated and given free access to standard rodent chow and water throughout the entire study. Test articles were formulated as a solution at 0.3, 0.4, 0.5, or 1.0 mg/mL in a vehicle comprised of 10:15:75 (v:v:v) dimethylacetamide (DMA):Solutol HS15:water and delivered orally at a rate of 10 mL/kg to three rats to achieve final doses of 3, 4, 5, or 10 mg/kg, respectively. At 4 hours post-dose, blood samples were collected via jugular vein cannula into tubes containing K2EDTA as the anticoagulant and stored on ice. Blood samples were then centrifuged at 4° C. at 6000 rpm for 5 minutes, and the resulting plasma was placed into tubes and stored frozen at −80° C. until analysis. Whole brain samples were also collected at 4 hours post-dose. The weight of each brain was measured and recorded, and samples were immediately stored on dry ice. Brain samples were then transferred to storage at −80° C. until analysis.
Prior to analysis, brain samples were combined with water (4 mL/1 gram of brain) and homogenized. Prior to injection, plasma and brain homogenate samples and standards were prepared for analysis by precipitation with acetonitrile or 1:1 (v:v) methanol:acetonitrile. Samples were then thoroughly mixed, centrifuged at 4000 rpm for 15 minutes, and the resulting supernatant was transferred for analysis. Test article concentrations in plasma and brain homogenate were then determined by LC-MS/MS and quantified against calibration standards prepared to known concentrations in matched blank (analyte-free) biological matrix. The Kp was then determined by dividing the dilution-corrected brain concentration by the plasma concentration from each rat. A brain density of 1 gram/mL was assumed for all calculations.
The mark [3] stands for this setting: brain (homogenate) versus plasma.

Sequence of CDK6/Cyclin D1 (Q00534 whole entry): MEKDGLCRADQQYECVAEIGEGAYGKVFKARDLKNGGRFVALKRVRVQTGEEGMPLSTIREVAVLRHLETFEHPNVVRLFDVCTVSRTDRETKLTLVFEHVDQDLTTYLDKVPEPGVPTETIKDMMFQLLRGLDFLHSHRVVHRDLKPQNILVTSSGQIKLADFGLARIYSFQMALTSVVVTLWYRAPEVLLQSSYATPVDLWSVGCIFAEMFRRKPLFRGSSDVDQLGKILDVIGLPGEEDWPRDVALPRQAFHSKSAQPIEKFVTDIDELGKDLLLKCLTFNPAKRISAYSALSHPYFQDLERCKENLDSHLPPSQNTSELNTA
Sequence of CDK6/Cyclin D1 (P24385 whole entry partner): as the sequence (P24385 whole entry partner) above

Take `Cc1c(-c2nc(Nc3ccc(N4CC5(CCN(C)C5)C4)cn3)ncc2F)sc2c(C(C)C)cn(C)c(=O)c12` [Example 61, 2-(5-Fluoro-2-((5-(6-methyl-2,6-diazaspiro[3.4]octan-2-yl)pyridin-2-yl)amino)pyrimidin-4-yl)-7-isopropyl-3,5-dimethylthieno[3,2-c]pyridin-4(5H)-one]: the IC50 (at CDK4/Cyclin D1; in series [1]; at CDK6/Cyclin D1) was no more than 20 nM each time. For the same compound, the Kp at 4 h in series [2] (setting [3]) lay within 1 to 3.
With `CCN1CCN(Cc2ccc(Nc3ncc(F)c(-c4sc5c(ncn5C(C)C)c4C)n3)nc2)CC1` [Example 124, N-[5-[(4-Ethylpiperazin-1-yl)methyl]pyridin-2-yl]-5-fluoro-4-(6-methyl-3-propan-2-ylthieno[2,3-d]imidazol-5-yl)pyrimidin-2-amine], the results for the IC50 (at CDK4/Cyclin D1; in series [1]; on CDK6/Cyclin D1) were no more than 20 nM, 20 to 200 nM and no more than 20 nM, respectively. For the same compound, the partition ratio (Kp) at 4 h in series [2] (setting [3]) lay within 1 to 3.
Take `CCN1CCN(c2ccc(Nc3ncc(F)c(-c4sc5c(nc(C)n5C(C)C)c4C)n3)nc2)CC1` [Example 2, N-(5-(4-Ethylpiperazin-1-yl)pyridin-2-yl)-5-fluoro-4-(3-isopropyl-2,6-dimethyl-3H-thieno[2,3-d]imidazol-5-yl)pyrimidin-2-amine]: the IC50 (on CDK4/Cyclin D1; in series [1]; at CDK6/Cyclin D1) was no more than 20 nM throughout. Besides, the partition ratio (Kp) at 4 h in series [2] (setting [3]) lay in the range of 1 to 3.
For the compound `CCN1CC2(C1)CN(c1ccc(Nc3ncc(F)c(-c4cc5ncn(C(C)C)c5s4)n3)nc1)C2` [Example 129, N-(5-(6-ethyl-2,6-diazaspiro[3.3]heptan-2-yl)pyridin-2-yl)-5-fluoro-4-(3-isopropyl-3H-thieno[2,3-d]imidazol-5-yl)pyrimidin-2-amine], the IC50 (at CDK4/Cyclin D1; in series [1]; at CDK6/Cyclin D1) was no more than 20 nM throughout. In addition, in series [2] (setting [3]), the Kp at 4 h was in the range of 1 to 3.
In the case of `Cc1cnc(Nc2ccc(C3CCN(C)CC3)cn2)nc1-c1cc2c(=O)n(C)cc(C(C)C)c2s1` [Example 97, 7-Isopropyl-5-methyl-2-(5-methyl-2-((5-(1-methylpiperidin-4-yl)pyridin-2-yl)amino)pyrimidin-4-yl)thieno[3,2-c]pyridin-4(5H)-one], the IC50 (on CDK4/Cyclin D1; in series [1]; at CDK6/Cyclin D1) was no more than 20 nM throughout. In series [2] (setting [3]), the Kp at 4 h was less than 1.
On to `Cc1c(-c2nc(Nc3ccc(C4CCN(C5CCOC5)CC4)cn3)ncc2F)sc2c(C(C)C)cn(C)c(=O)c12` (stereo not shown) [Example 84, 2-(5-Fluoro-2-((5-(1-(tetrahydrofuran-3-yl)piperidin-4-yl)pyridin-2-yl)amino)pyrimidin-4-yl)-7-isopropyl-3,5-dimethylthieno[3,2-c]pyridin-4(5H)-one], for which the IC50 was no more than 20 nM on CDK4/Cyclin D1, 20 to 200 nM in series [1] and no more than 20 nM at CDK6/Cyclin D1. For the same compound, in series [2] (setting [3]), the Kp at 4 h lay within 1 to 3.
On to `CCN1CC2(C1)CN(c1ccc(Nc3ncc(F)c(-c4sc5c(C(C)C)cn(C)c(=O)c5c4C)n3)nc1)C2` [Example 57, 2-(2-((5-(6-Ethyl-2,6-diazaspiro[3.3]heptan-2-yl)pyridin-2-yl)amino)-5-fluoropyrimidin-4-yl)-7-isopropyl-3,5-dimethylthieno[3,2-c]pyridin-4(5H)-one], for which the IC50 on CDK4/Cyclin D1 is no more than 20 nM; in series [1], 20 to 200 nM; on CDK6/Cyclin D1, no more than 20 nM. Also, in series [2] (setting [3]), the concentration ratio (Kp) at 4 h lay within 1 to 3.
`CCN1CCN(Cc2ccc(Nc3ncc(F)c(-c4sc5c(nc(C)n5C(C)C)c4C)n3)nc2)CC1` [Example 3, N-(5-((4-Ethylpiperazin-1-yl)methyl)pyridin-2-yl)-5-fluoro-4-(3-isopropyl-2,6-dimethyl-3H-thieno[2,3-d]imidazol-5-yl)pyrimidin-2-amine]: the figures for the IC50 (at CDK4/Cyclin D1; in series [1]; at CDK6/Cyclin D1) were no more than 20 nM, 20 to 200 nM and 20 to 200 nM, respectively. In addition, the Kp at 4 h in series [2] (setting [3]) was less than 1.
Turning to `CCN1CCN(Cc2ccc(Nc3ncc(F)c(-c4sc5c(C(C)C)cn(C)c(=O)c5c4C)n3)nc2)CC1` [Example 90, 2-(2-((5-((4-Ethylpiperazin-1-yl)methyl)pyridin-2-yl)amino)-5-fluoropyrimidin-4-yl)-7-isopropyl-3,5-dimethylthieno[3,2-c]pyridin-4(5H)-one], the IC50 on CDK4/Cyclin D1 was no more than 20 nM; in series [1] it was 20 to 200 nM; on CDK6/Cyclin D1, 20 to 200 nM. Moreover, the Kp at 4 h in series [2] (setting [3]) is less than 1.
Turning to `CCN1CC2(C1)CN(c1ccc(Nc3ncc(F)c(-c4cc5nccc(C(C)C)c5s4)n3)nc1)C2` [Example 23, N-[5-(6-Ethyl-2,6-diazaspiro[3.3]heptan-2-yl)pyridin-2-yl]-5-fluoro-4-(7-propan-2-ylthieno[3,2-b]pyridin-2-yl)pyrimidin-2-amine], the results for the IC50 (at CDK4/Cyclin D1; in series [1]; on CDK6/Cyclin D1) were no more than 20 nM, 20 to 200 nM and 20 to 200 nM, respectively. Besides, the Kp at 4 h in series [2] (setting [3]) is greater than 3.
In the case of `CCN1CCN(c2ccc(Nc3ncc(F)c(-c4sc5c(nc(C)n5C5CCCC5)c4C)n3)nc2)CC1` [Example 1, 4-(3-Cyclopentyl-2,6-dimethyl-3H-thieno[2,3-d]imidazol-5-yl)-N-(5-(4-ethylpiperazin-1-yl)pyridin-2-yl)-5-fluoropyrimidin-2-amine], the IC50 was no more than 20 nM on CDK4/Cyclin D1, 20 to 200 nM in series [1] and 20 to 200 nM on CDK6/Cyclin D1. Further, the Kp at 4 h in series [2] (setting [3]) fell in the range of 1 to 3.
As for `Cc1c(-c2nc(Nc3ccc(C4CCN(C)CC4)nn3)ncc2F)sc2c(C(C)C)cn(C)c(=O)c12` [Example 93, 2-(5-Fluoro-2-((6-(1-methylpiperidin-4-yl)pyridazin-3-yl)amino)pyrimidin-4-yl)-7-isopropyl-3,5-dimethylthieno[3,2-c]pyridin-4(5H)-one], the IC50 on CDK4/Cyclin D1 was no more than 20 nM; in series [1], 20 to 200 nM; at CDK6/Cyclin D1, 20 to 200 nM. Besides, in series [2] (setting [3]), the Kp at 4 h is less than 1.
Turning to `Cc1nc2cc(-c3nc(Nc4ccc(C5CCN(C)CC5)cn4)ncc3C(F)(F)F)sc2n1C(C)C` [Example 120, 4-(3-Isopropyl-2-methyl-3H-thieno[2,3-d]imidazol-5-yl)-N-(5-(1-methylpiperidin-4-yl)pyridin-2-yl)-5-(trifluoromethyl)pyrimidin-2-amine], the figures for the IC50 (at CDK4/Cyclin D1; in series [1]; on CDK6/Cyclin D1) were no more than 20 nM, 20 to 200 nM and no more than 20 nM, respectively. Besides, the Kp at 4 h in series [2] (setting [3]) lay in the range of 1 to 3.
Take `Cc1c(-c2nc(Nc3ccc(N4CCN(C)CC4)cn3)ncc2F)sc2c1nc(C)n2C(C)C` [Example 9, 5-Fluoro-4-(3-isopropyl-2,6-dimethyl-3H-thieno[2,3-d]imidazol-5-yl)-N-(5-(4-methylpiperazin-1-yl)pyridin-2-yl)pyrimidin-2-amine]: the IC50 (on CDK4/Cyclin D1; in series [1]; at CDK6/Cyclin D1) was no more than 20 nM each time. The Kp at 4 h in series [2] (setting [3]) was in the range of 1 to 3.
For `Cc1c(-c2nc(Nc3ccc(C4CCN(C)CC4)cn3)ncc2F)sc2c(C(C)C)c[nH]c(=O)c12` [Example 60, 2-(5-Fluoro-2-((5-(1-methylpiperidin-4-yl)pyridin-2-yl)amino)pyrimidin-4-yl)-7-isopropyl-3-methylthieno[3,2-c]pyridin-4(5H)-one], the IC50 (on CDK4/Cyclin D1; in series [1]; on CDK6/Cyclin D1) was no more than 20 nM in each case. In addition, the Kp at 4 h in series [2] (setting [3]) is less than 1.
For `CCN1CC2(C1)CN(c1ccc(Nc3ncc(F)c(-c4sc5c(nc(C)n5C(C)C)c4C)n3)nc1)C2` [Example 52, 4-(2,6-Dimethyl-3-propan-2-ylthieno[2,3-d]imidazol-5-yl)-N-[5-(6-ethyl-2,6-diazaspiro[3.3]heptan-2-yl)pyridin-2-yl]-5-fluoropyrimidin-2-amine], the IC50 (on CDK4/Cyclin D1; in series [1]; on CDK6/Cyclin D1) was no more than 20 nM throughout. For the same compound, in series [2] (setting [3]), the Kp at 4 h lay within 1 to 3.
As to `CCN1CCC(c2ccc(Nc3ncc(F)c(-c4sc5c(C(C)C)cn(C)c(=O)c5c4C)n3)nc2)CC1` [Example 87, 2-(2-((5-(1-Ethylpiperidin-4-yl)pyridin-2-yl)amino)-5-fluoropyrimidin-4-yl)-7-isopropyl-3,5-dimethylthieno[3,2-c]pyridin-4(5H)-one], the results for the IC50 (at CDK4/Cyclin D1; in series [1]; at CDK6/Cyclin D1) were no more than 20 nM, 20 to 200 nM and no more than 20 nM, respectively. The Kp at 4 h in series [2] (setting [3]) lay in the range of 1 to 3.
In the case of `Cc1nc2cc(-c3nc(Nc4ccc(OC5CCN(C)C5)cn4)ncc3F)sc2n1C(C)C` (stereo not shown) [Example 114, 5-Fluoro-4-(2-methyl-3-propan-2-ylthieno[2,3-d]imidazol-5-yl)-N-[5-(1-methylpyrrolidin-3-yl)oxypyridin-2-yl]pyrimidin-2-amine], the figures for the IC50 (on CDK4/Cyclin D1; in series [1]; at CDK6/Cyclin D1) were no more than 20 nM, 20 to 200 nM and 20 to 200 nM, respectively. Moreover, the Kp at 4 h in series [2] (brain / plasma) fell in the range of 1 to 3.
In the case of `Cc1c(-c2nc(Nc3ccc(N4C[C@H]5CN(C)C[C@H]5C4)cn3)ncc2F)sc2c(C(C)C)cn(C)c(=O)c12` [Example 78, 2-(5-Fluoro-2-((5-((3aR,6aS)-5-methylhexahydropyrrolo[3,4-c]pyrrol-2(1H)-yl)pyridin-2-yl)amino)pyrimidin-4-yl)-7-isopropyl-3,5-dimethylthieno[3,2-c]pyridin-4(5H)-one], the IC50 at CDK4/Cyclin D1 is no more than 20 nM; in series [1], 20 to 200 nM; on CDK6/Cyclin D1, no more than 20 nM. Besides, the Kp at 4 h in series [2] (setting [3]) lay in the range of 1 to 3.

The term Kp denotes tissue or fluid exposure divided by exposure in the circulation.
